From patent US10722501B2 (BAYER AKTIENGESELLSCHAFT, priority 2016, dated 2020)

target: T1, recombinant full-length human prolyl endopeptidase (PREP) (Homo sapiens, UniProt P48147); assay: Biochemical human prolyl endopeptidase (PREP) assay with fluorescently labelled substrate; details: substrate Z-Gly-Pro-AMC 50 μM, 32° C., 60 min; some as mean values from multiple independent determinations
T1 construct: To recombinant full-length human prolyl endopeptidase (PREP, R&D-Systems, 4308-SE); purchased R&D-Systems 4308-SE
T1 sequence (P48147 1-710): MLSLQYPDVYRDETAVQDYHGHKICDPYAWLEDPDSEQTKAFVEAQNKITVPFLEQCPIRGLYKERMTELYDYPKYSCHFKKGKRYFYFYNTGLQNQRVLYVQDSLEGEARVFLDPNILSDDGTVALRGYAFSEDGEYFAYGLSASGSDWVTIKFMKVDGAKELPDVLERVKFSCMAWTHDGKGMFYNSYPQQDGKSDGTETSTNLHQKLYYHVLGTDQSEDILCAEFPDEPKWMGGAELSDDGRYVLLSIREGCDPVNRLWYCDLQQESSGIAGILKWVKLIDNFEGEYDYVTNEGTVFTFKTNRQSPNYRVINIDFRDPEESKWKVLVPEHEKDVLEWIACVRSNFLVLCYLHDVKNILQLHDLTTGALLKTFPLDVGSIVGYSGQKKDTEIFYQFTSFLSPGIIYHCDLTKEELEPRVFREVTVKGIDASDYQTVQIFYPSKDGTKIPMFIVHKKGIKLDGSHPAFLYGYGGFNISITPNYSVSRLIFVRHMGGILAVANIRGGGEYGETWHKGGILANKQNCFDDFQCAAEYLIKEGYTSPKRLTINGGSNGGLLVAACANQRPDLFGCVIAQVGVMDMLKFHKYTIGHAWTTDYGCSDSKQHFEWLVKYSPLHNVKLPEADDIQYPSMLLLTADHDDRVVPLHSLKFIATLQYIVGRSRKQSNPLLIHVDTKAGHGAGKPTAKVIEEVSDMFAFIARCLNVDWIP
In short: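 Initial rates of fluorescence increase from 50 μM Z-Gly-Pro-AMC cleavage (ex 360/em 465 nm, 60 min, 32° C) give percent PREP activity versus no-compound control, and IC50 is interpolated. Enzyme used at 0.4 nM (final, example) in Tris pH 7.5 with EDTA, GSH, BSA and Brij-35; compounds span 1 nM to 30 μM.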

| Compound | IC50 |
| --- | --- |
| O=C(C1CCCc2nn(Cc3ccc(Cl)nc3)c(=O)n21)N1CC[C@H](F)C1 (mixture of isomers) [Example 561, (5RS)-2-[(6-Chlorpyridin-3-yl)methyl]-5-{[(3S)-3-fluorpyrrolidin-1-yl]carbonyl}-5,6,7,8-tetrahydro[1,2,4]triazolo[4,3-a]pyridin-3(2H)-on] | 0.37 nM |
| O=C([C@@H]1CCCc2nn(Cc3ccc(C(F)F)nc3)c(=O)n21)N1CC[C@H](F)C1 [Example 206, (5S)-2-{[6-(Difluoromethyl)pyridin-3-yl]methyl}-5-{[(3S)-3-fluoropyrrolidin-1-yl]carbonyl}-5,6,7,8-tetrahydro[1,2,4]triazolo[4,3-a]pyridin-3(2H)-one] | 1.2 nM |
| O=C(C1CC(C(F)(F)F)Cc2nn(Cc3ccc(C(F)(F)F)nc3)c(=O)n21)N1CC(O)C1 (single isomer, unassigned) [Example 234, (5RS,7RS)-5-[(3-Hydroxyazetidin-1-yl)carbonyl]-7-(trifluoromethyl)-2-{[6-(trifluoromethyl)pyridin-3-yl]methyl}-5,6,7,8-tetrahydro[1,2,4]triazolo[4,3-a]pyridin-3(2H)-one] | 120 nM |
| O=C(C1CC(C(F)(F)F)Cc2nn(Cc3ccc(Cl)nc3)c(=O)n21)N1CCCC1 (single isomer, unassigned) [Example 229, (5RS,7RS)-2-[(6-Chloropyridin-3-yl)methyl]-5-(pyrrolidin-1-ylcarbonyl)-7-(trifluoromethyl)-5,6,7,8-tetrahydro[1,2,4]triazolo[4,3-a]pyridin-3(2H)-one] | 0.34 nM |
| O=C([C@@H]1CCCc2nn(Cc3ccc(C(F)(F)F)c(F)c3)c(=O)n21)N1CCC(F)(F)C1 [Example 470, (5S)-5-[(3,3-Difluoropyrrolidin-1-yl)carbonyl]-2-[3-fluoro-4-(trifluoromethyl)benzyl]-5,6,7,8-tetrahydro[1,2,4]triazolo[4,3-a]pyridin-3(2H)-one] | 0.82 nM |
| O=C([C@@H]1CCCc2nn(Cc3csc(C(F)(F)F)n3)c(=O)n21)N1CCC(F)(F)C1 [Example 364, (5S)-5-[(3,3-Difluoropyrrolidin-1-yl)carbonyl]-2-{[2-(trifluoromethyl)-1,3-thiazol-4-yl]methyl}-5,6,7,8-tetrahydro[1,2,4]triazolo[4,3-a]pyridin-3(2H)-one] | 29 nM |
| O=C([C@@H]1CCCc2nn(Cc3ccc(C(F)(F)F)nc3)c(=O)n21)N1CC[C@H](O)C1 [Example 425, (5S)-5-{[(3S)-3-Hydroxypyrrolidin-1-yl]carbonyl}-2-{[6-(trifluoromethyl)pyridin-3-yl]methyl}-5,6,7,8-tetrahydro[1,2,4]triazolo[4,3-a]pyridin-3(2H)-one] | 35 nM |
| O=C([C@@H]1CCCc2nn(CC3(c4ccc(C(F)(F)F)cc4)CC3)c(=O)n21)N1CC(F)C1 [Example 527, (5S)-5-[(3-Fluoroazetidin-1-yl)carbonyl]-2-({1-[4-(trifluoromethyl)phenyl]cyclopropyl}methyl)-5,6,7,8-tetrahydro[1,2,4]triazolo[4,3-a]pyridin-3(2H)-one] | 1.2 nM |
| O=C([C@@H]1CCCc2nn(Cc3ccc(C(F)(F)F)nc3)c(=O)n21)N1CC(F)C(F)C1 (single isomer, unassigned) [Example 554] | 10 nM |
| O=C(C1CCCc2nn(Cc3cc(C(F)(F)F)c(Cl)cn3)c(=O)n21)N1CCCC1 (single isomer, unassigned) [Example 107] | 2.1 nM |
| O=C([C@@H]1CCCc2nn(Cc3ccc(F)cc3)c(=O)n21)N1CC(F)C1 [Example 546, (5S)-5-[(3-Fluoroazetidin-1-yl)carbonyl]-2-(4-fluorobenzyl)-5,6,7,8-tetrahydro[1,2,4]triazolo[4,3-a]pyridin-3(2H)-one] | 0.57 nM |
| O=C([C@@H]1CCC(O)c2nn(Cc3cncc(Cl)c3)c(=O)n21)N1CC[C@H](F)C1 (mixture of isomers) [Example 279, (5S,8RS)-2-[(5-Chloropyridin-3-yl)methyl]-5-{[(3S)-3-fluoropyrrolidin-1-yl]carbonyl}-8-hydroxy-5,6,7,8-tetrahydro[1,2,4]triazolo[4,3-a]pyridin-3(2H)-one] | 0.485 nM |
| O=C(C1C(C(F)(F)F)CCc2nn(Cc3ccc(Cl)cn3)c(=O)n21)N1CC[C@H](F)C1 (mixture of isomers) [Example 298, (5RS,6RS)-2-[(5-Chloropyridin-2-yl)methyl]-5-{[(3S)-3-fluoropyrrolidin-1-yl]carbonyl}-6-(trifluoromethyl)-5,6,7,8-tetrahydro[1,2,4]triazolo[4,3-a]pyridin-3(2H)-one] | 24 nM |
| O=C([C@@H]1CCCc2nn(Cc3cccc(C(F)(F)F)n3)c(=O)n21)N1CC(F)C1 [Example 369, (5S)-5-[(3-Fluoroazetidin-1-yl)carbonyl]-2-{[6-(trifluoromethyl)pyridin-2-yl]methyl}-5,6,7,8-tetrahydro[1,2,4]triazolo[4,3-a]pyridin-3(2H)-one] | 13 nM |
| O=C([C@@H]1CCCc2nn(Cc3ccc(Br)cc3)c(=O)n21)N1C[C@@H](F)[C@@H](F)C1 [Example 210, (5S)-2-(4-Bromobenzyl)-5-{[(3R,4S)-3,4-difluoropyrrolidin-1-yl]carbonyl}-5,6,7,8-tetrahydro[1,2,4]triazolo[4,3-a]pyridin-3(2H)-one] | 0.27 nM |
| O=C(C1CCCc2nn(Cc3ccc(F)c(C(F)(F)F)c3)c(=O)n21)N1CC[C@H](O)C1 (mixture of isomers) [Example 101, (5RS)-2-[4-Fluoro-3-(trifluoromethyl)benzyl]-5-{[(3S)-3-hydroxypyrrolidin-1-yl]carbonyl}-5,6,7,8-tetrahydro[1,2,4]triazolo[4,3-a]pyridin-3(2H)-one] | 3.05 nM |
| O=C([C@@H]1CCCc2nn(Cc3ncc(F)cc3Cl)c(=O)n21)N1CC[C@H](F)C1 [Example 560, (5S)-2-[(3-Chloro-5-fluoropyridin-2-yl)methyl]-5-{[(3S)-3-fluoropyrrolidin-1-yl]carbonyl}-5,6,7,8-tetrahydro[1,2,4]triazolo[4,3-a]pyridin-3(2H)-one] | 0.43 nM |
| O=C([C@@H]1CCCc2nn(Cc3ncc(Cl)cc3F)c(=O)n21)N1CC(F)(F)C1 [Example 409, (5S)-2-[(5-Chloro-3-fluoropyridin-2-yl)methyl]-5-[(3,3-difluoroazetidin-1-yl)carbonyl]-5,6,7,8-tetrahydro[1,2,4]triazolo[4,3-a]pyridin-3(2H)-one] | 14 nM |
| O=C([C@@H]1CC=Cc2nn(Cc3ccc(C(F)(F)F)nc3)c(=O)n21)N1CC[C@H](F)C1 [Example 276, (5S)-5-{[(3S)-3-Fluoropyrrolidin-1-yl]carbonyl}-2-{[6-(trifluoromethyl)pyridin-3-yl]methyl}-5,6-dihydro[1,2,4]triazolo[4,3-a]pyridin-3(2H)-one] | 3.6 nM |
| O=C(C1CC(C(F)(F)F)Cc2nn(Cc3ccc(C(F)(F)F)nc3)c(=O)n21)N1CC(F)C(F)C1 (racemic) [Example 582, (5RS,7RS)-5-{[rel-(3R,4R)-3,4-Difluoropyrrolidin-1-yl]carbonyl}-7-(trifluoromethyl)-2-{[6-(trifluoromethyl)pyridin-3-yl]methyl}-5,6,7,8-tetrahydro[1,2,4]triazolo[4,3-a]pyridin-3(2H)-one] | 140 nM |
| O=C([C@@H]1CCCc2nn(Cc3ccnc(C(F)(F)F)c3F)c(=O)n21)N1CCCC1 [Example 75, (5S)-2-{[3-Fluoro-2-(trifluoromethyl)pyridin-4-yl]methyl}-5-(pyrrolidin-1-ylcarbonyl)-5,6,7,8-tetrahydro[1,2,4]triazolo[4,3-a]pyridin-3(2H)-one] | 1.1 nM |
